In test [1] the target is Phosphatidylinositol 4-phosphate 3-kinase C2 domain-containing subunit beta (Homo sapiens) (UniProt O00750). Kind of test: Selectivity interaction (KinomeScan (DiscoverX)) EUB0000229b PIK3C2B. To be noted: at 10 µM.
Test [2] concerns the target Myosin-IIIa (Homo sapiens) (UniProt Q8NEV4). Kind of test: Selectivity interaction (KinomeScan (DiscoverX)) EUB0001619a MYO3A. To be noted: at 1 µM.
Test [3] concerns the target Ribosomal protein S6 kinase alpha-5 (Homo sapiens) (UniProt O75582). The test is described as follows: Selectivity interaction (ActivX KiNativ screen (ex vivo kinase selectivity in human PBMCs)) EUB0001619a RPS6KA5. The format is cell-based. The conditions noted are these: PBMC, at 1 µM.
Test [4] concerns the target T1, Serine/threonine-protein kinase TAO3 (Homo sapiens) (UniProt Q9H2K8).
T1 sequence (whole entry): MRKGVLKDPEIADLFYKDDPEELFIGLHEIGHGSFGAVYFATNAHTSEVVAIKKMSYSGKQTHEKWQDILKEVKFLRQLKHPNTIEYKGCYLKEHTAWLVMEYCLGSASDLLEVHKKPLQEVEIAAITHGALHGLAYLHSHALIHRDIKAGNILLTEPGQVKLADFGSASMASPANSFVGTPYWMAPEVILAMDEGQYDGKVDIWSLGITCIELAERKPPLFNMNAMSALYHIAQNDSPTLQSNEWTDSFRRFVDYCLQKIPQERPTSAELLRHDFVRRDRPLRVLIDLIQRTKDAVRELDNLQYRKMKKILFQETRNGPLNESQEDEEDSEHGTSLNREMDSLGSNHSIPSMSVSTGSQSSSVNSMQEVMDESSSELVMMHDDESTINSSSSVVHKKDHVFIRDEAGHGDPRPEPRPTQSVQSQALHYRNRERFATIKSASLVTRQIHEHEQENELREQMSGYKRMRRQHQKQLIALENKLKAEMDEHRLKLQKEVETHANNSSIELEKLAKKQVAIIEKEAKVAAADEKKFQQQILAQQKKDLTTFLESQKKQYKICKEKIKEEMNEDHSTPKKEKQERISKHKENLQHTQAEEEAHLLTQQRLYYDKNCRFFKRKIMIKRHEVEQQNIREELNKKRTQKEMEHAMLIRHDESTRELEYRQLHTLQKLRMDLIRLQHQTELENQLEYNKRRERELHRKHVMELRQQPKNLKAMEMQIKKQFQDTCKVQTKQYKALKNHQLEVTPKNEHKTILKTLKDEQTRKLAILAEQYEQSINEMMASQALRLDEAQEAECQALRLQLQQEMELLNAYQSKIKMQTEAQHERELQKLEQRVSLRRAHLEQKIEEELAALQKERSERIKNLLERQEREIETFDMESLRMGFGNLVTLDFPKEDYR
The test is described as follows: Selectivity interaction (ActivX KiNativ screen (ex vivo kinase selectivity in human PBMCs)) EUB0001619a TAOK3. It counts as cell-based. The conditions noted are these: PBMC, at 1 µM.

Test [5] concerns T2, Receptor-type tyrosine-protein kinase FLT3 (Homo sapiens), P36888 [N841I].
T2 sequence (whole entry): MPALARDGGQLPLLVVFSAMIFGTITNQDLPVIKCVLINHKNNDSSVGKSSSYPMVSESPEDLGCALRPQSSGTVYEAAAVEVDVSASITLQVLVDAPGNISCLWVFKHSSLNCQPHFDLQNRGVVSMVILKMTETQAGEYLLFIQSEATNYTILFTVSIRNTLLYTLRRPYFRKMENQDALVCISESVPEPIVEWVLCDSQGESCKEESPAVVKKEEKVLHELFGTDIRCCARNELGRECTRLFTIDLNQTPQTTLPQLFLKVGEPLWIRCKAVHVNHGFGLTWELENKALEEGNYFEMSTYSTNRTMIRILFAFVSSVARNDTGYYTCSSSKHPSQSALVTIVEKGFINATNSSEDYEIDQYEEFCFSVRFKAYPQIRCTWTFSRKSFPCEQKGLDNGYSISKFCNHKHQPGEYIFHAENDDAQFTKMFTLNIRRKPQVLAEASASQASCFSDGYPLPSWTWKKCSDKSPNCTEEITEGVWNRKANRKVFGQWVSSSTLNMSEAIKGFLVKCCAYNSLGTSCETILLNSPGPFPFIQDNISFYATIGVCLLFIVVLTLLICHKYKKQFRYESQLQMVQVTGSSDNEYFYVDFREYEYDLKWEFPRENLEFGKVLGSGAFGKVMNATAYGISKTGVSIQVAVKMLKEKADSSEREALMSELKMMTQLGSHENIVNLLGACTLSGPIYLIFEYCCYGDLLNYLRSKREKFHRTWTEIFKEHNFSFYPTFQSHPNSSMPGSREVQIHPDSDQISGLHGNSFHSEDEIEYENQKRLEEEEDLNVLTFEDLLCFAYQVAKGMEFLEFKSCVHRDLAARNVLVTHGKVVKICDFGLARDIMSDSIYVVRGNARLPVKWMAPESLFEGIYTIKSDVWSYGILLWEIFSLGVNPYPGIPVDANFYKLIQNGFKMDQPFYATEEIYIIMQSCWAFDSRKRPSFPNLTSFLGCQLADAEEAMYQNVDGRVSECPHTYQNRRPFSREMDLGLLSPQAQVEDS
The conditions noted are these: at 10 µM.

The target in test [6] is Serine/threonine-protein kinase PLK3 (Homo sapiens, UniProt Q9H4B4). Kind of test: Selectivity interaction (KinomeScan (DiscoverX)) EUB0000695a PLK3. The conditions noted are these: at 100 nM.
For test [7], the target named is T3, Serine/threonine-protein kinase RIO1 (Homo sapiens) (UniProt Q9BRS2).
T3 sequence (whole entry): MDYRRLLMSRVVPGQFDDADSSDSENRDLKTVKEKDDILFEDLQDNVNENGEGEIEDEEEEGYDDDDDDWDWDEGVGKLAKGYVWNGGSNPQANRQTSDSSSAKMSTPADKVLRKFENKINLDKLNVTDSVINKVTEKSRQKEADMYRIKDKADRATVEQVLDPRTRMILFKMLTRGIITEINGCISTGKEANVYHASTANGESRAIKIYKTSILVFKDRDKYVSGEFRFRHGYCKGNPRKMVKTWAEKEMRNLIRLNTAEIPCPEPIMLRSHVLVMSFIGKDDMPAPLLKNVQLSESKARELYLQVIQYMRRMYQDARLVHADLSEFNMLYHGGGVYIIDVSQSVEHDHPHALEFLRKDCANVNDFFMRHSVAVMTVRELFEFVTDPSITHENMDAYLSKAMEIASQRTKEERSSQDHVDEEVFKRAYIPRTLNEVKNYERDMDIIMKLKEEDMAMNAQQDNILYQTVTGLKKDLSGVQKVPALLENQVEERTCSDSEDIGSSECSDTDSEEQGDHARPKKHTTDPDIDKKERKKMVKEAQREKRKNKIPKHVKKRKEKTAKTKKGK
Kind of test: Selectivity interaction (KinomeScan (DiscoverX)) EUB0000595a RIOK1. The conditions noted are these: at 10 µM.

Test [8] deals with Phosphatidylinositol 4,5-bisphosphate 3-kinase catalytic subunit alpha isoform (Homo sapiens), P42336 [M1043I]. The conditions noted are these: at 10 µM.

Experimental findings from ChEMBL document CHEMBL5465560, “Selectivity Literature for EUbOPEN Chemogenomic Library” (2024) are described below.

Chain of Phosphatidylinositol 4,5-bisphosphate 3-kinase catalytic subunit alpha isoform (Homo sapiens), P42336 [M1043I] (P42336 whole entry M1043I, canonical isoform): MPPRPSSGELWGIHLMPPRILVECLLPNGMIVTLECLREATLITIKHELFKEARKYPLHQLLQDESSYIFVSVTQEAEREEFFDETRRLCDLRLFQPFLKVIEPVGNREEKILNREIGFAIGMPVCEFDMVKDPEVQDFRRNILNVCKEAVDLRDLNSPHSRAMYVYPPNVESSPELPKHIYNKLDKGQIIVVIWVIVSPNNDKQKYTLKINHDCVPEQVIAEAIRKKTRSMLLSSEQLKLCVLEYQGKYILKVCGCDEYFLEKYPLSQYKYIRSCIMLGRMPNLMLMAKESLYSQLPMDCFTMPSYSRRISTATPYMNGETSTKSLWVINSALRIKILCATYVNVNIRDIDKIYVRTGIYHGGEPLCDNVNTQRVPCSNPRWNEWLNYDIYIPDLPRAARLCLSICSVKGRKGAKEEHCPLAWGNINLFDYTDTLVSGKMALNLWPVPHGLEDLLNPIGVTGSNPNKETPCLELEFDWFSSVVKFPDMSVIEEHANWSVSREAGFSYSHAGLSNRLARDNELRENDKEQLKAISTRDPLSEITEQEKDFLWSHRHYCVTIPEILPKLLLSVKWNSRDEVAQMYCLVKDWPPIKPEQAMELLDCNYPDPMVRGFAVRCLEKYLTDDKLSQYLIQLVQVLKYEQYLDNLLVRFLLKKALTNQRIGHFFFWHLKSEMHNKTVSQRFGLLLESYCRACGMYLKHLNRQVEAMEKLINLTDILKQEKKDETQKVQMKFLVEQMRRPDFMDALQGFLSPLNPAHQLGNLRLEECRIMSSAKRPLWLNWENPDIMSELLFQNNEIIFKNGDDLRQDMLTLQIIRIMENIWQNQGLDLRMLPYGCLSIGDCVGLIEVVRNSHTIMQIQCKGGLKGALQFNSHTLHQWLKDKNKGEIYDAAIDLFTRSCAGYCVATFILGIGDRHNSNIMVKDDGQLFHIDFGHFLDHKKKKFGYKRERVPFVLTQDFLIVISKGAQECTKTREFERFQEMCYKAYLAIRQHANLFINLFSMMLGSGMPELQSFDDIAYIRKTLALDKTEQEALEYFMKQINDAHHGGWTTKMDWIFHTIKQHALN
Chain of Myosin-IIIa (Homo sapiens) (Q8NEV4 whole entry): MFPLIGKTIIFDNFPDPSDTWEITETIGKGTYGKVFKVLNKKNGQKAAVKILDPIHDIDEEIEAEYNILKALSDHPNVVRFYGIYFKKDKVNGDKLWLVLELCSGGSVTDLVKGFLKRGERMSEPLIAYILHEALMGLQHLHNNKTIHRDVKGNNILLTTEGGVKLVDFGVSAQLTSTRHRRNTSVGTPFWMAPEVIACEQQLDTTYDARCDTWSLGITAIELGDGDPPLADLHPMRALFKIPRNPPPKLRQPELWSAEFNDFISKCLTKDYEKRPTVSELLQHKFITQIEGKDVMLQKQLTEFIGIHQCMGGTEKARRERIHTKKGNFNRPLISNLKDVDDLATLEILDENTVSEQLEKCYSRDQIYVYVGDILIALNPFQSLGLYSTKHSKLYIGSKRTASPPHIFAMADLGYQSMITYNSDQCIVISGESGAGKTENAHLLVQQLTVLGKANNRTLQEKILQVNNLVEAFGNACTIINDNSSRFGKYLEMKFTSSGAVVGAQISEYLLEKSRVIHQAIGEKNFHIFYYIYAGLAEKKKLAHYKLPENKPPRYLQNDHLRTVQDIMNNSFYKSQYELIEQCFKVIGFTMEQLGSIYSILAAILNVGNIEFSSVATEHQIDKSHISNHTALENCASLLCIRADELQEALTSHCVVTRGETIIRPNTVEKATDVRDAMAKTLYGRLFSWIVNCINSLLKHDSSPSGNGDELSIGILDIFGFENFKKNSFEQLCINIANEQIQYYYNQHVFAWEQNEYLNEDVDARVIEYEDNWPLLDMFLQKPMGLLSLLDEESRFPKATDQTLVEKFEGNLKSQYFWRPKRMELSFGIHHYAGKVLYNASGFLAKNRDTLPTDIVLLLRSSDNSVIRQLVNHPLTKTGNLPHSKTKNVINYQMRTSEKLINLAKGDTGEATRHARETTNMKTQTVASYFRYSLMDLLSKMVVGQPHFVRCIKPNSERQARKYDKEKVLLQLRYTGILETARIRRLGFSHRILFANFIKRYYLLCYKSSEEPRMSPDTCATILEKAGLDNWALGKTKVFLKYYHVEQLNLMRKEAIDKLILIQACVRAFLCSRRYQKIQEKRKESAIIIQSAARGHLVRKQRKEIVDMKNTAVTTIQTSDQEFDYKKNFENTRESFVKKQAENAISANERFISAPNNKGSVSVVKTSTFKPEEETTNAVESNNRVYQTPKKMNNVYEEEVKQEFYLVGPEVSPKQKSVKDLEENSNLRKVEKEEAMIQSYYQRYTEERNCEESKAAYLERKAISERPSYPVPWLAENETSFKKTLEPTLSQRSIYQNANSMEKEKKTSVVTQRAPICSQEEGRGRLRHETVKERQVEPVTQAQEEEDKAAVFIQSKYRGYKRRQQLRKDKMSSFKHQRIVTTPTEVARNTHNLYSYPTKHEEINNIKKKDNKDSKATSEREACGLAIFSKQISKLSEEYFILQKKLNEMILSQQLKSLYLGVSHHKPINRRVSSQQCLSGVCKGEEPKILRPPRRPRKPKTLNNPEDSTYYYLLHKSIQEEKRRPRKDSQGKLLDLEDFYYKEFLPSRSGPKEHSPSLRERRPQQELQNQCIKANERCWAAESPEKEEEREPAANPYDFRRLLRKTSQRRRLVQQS
Chain of Ribosomal protein S6 kinase alpha-5 (Homo sapiens) (O75582 whole entry, looked up): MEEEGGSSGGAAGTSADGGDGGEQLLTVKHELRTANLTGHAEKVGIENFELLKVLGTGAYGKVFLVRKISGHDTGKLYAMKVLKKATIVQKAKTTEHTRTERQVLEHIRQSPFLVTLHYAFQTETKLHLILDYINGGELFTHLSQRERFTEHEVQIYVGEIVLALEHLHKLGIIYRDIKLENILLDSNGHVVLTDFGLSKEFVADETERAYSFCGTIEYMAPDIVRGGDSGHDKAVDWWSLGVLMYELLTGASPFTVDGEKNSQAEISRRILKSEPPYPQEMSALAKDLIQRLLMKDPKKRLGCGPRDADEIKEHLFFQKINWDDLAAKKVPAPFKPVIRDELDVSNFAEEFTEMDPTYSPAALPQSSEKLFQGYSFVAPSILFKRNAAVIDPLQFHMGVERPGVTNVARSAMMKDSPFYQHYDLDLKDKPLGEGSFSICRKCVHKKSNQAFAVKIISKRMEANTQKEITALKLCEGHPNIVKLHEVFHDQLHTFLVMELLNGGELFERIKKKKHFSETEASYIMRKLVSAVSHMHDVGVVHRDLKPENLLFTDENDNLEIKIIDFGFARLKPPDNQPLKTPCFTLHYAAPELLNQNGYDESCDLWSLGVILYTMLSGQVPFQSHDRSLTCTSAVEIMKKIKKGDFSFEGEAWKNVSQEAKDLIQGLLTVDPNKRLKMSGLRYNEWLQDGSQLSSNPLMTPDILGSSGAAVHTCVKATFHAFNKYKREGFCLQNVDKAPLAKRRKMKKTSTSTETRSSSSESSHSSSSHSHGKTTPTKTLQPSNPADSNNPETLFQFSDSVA
Chain of Serine/threonine-protein kinase PLK3 (Q9H4B4 whole entry, looked up): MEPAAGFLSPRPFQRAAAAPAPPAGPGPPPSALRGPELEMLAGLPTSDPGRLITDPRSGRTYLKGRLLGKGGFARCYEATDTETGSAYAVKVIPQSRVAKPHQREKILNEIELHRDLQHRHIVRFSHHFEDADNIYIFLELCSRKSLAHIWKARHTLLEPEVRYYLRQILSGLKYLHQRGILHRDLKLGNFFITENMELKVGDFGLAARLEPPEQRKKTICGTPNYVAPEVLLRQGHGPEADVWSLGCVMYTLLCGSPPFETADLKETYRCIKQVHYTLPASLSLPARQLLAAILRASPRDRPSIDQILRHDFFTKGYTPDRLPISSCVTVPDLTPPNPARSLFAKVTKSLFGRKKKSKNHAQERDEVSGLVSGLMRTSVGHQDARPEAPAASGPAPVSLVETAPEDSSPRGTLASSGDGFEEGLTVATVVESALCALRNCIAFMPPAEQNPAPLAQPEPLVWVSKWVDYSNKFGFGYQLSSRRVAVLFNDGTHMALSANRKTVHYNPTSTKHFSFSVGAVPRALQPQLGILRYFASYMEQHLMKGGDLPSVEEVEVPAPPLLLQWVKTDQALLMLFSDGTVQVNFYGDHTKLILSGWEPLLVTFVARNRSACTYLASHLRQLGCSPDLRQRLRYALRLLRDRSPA

With `COc1cc(N(C)c2ccnc3ccc(C(F)(F)F)cc23)cc(OC)c1OC`, the % binding in test [1] came to 100%. On to `N#Cc1cccc(-c2c[nH]c3ncnc(N4CCOCC4)c23)c1`, for which the % of control in test [2] came out at 94%. Besides, the figures for the % of inhibition in test [3] and in test [4] were -4% and 6%, respectively.

The molecule `CCN(CC)CCCCNc1ncc2cc(-c3cc(OC)cc(OC)c3)c(NC(=O)NC(C)(C)C)nc2n1` registered a % of control in test [5] of 100%. For the molecule `Cc1cc(F)c(C(=O)Nc2cccc(-c3nncn3C(C)C)n2)cc1-n1cnc(C2CC2)c1`, the % of control in test [6] is 100%. Turning to `COCC(=O)NC/C=C/c1ccc2ncnc(Nc3ccc(Oc4ccc(C)nc4)c(C)c3)c2c1` [CP-724714], the % of control worked out at 91% in test [7] and 100% in test [8].
